Test results: publication PMC8200523, “Designing and Development of FRET-Based Nanosensor for Real Time Analysis of N-Acetyl-5-Neuraminic Acid in Living Cells” (Frontiers in Nutrition, 2021)

What was measured:
[1] = biological target: T1, FLIP-SA (ECFP-SiaP-Venus); sialic acid periplasmic binding protein SiaP (Haemophilus influenzae, UniProt P44542); assay: FRET ratio ([…] nm) titration of purified ECFP-SiaP-Venus sensor; conditions: PBS 20 mM, pH 6.5-7.0; sensor 0.20 mg/ml; NeuAc 1 nM-1 M; text prints ~157 μM
T1 construct: SiaP without signal peptide and stop codon, inserted at KpnI site between ECFP (N-term) and Venus (C-term); His6 tag of pRSET-B; E. coli BL21(DE3), Ni-NTA
T1 sequence (P44542 24-329): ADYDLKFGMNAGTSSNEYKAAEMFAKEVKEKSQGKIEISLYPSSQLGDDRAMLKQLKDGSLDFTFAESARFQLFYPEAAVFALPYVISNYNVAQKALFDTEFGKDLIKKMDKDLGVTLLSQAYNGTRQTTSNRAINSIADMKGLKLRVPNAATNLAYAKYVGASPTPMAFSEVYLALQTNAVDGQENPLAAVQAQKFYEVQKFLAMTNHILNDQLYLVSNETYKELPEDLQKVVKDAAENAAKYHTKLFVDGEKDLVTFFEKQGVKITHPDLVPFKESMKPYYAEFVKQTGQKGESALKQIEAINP

[2] = biological target: FLIP-SA (ECFP-SiaP-Venus); sialic acid periplasmic binding protein SiaP (Haemophilus influenzae, UniProt P44542, R150D); conditions: PBS 20 mM, pH 6.5-7.0; sensor 0.20 mg/ml
FLIP-SA (ECFP-SiaP-Venus); sialic acid periplasmic binding protein SiaP (Haemophilus influenzae, UniProt P44542, R150D), sequence (P44542 24-329 R150D): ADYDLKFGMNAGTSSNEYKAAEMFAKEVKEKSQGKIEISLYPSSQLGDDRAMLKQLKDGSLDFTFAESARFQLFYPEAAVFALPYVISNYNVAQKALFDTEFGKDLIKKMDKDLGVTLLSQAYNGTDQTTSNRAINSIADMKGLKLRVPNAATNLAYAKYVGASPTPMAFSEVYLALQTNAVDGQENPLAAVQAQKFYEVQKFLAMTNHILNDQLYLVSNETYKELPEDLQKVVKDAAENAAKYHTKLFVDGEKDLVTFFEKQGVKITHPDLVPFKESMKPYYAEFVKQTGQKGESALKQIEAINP

[3] = biological target: FLIP-SA (ECFP-SiaP-Venus); sialic acid periplasmic binding protein SiaP (Haemophilus influenzae, UniProt P44542, E90N); conditions: PBS 20 mM, pH 6.5-7.0; sensor 0.20 mg/ml
FLIP-SA (ECFP-SiaP-Venus); sialic acid periplasmic binding protein SiaP (Haemophilus influenzae, UniProt P44542, E90N), sequence (P44542 24-329 E90N): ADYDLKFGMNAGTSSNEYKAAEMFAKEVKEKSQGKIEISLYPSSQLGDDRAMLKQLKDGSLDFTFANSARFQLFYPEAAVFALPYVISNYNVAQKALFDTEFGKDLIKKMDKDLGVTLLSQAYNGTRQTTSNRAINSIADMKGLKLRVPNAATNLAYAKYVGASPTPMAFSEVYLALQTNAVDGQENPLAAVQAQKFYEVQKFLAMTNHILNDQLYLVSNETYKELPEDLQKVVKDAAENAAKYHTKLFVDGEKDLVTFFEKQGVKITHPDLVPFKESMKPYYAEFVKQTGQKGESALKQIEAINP

[4] = biological target: FLIP-SA (ECFP-SiaP-Venus); sialic acid periplasmic binding protein SiaP (Haemophilus influenzae, UniProt P44542, D72K); conditions: PBS 20 mM, pH 6.5-7.0; sensor 0.20 mg/ml
FLIP-SA (ECFP-SiaP-Venus); sialic acid periplasmic binding protein SiaP (Haemophilus influenzae, UniProt P44542, D72K), sequence (P44542 24-329 D72K): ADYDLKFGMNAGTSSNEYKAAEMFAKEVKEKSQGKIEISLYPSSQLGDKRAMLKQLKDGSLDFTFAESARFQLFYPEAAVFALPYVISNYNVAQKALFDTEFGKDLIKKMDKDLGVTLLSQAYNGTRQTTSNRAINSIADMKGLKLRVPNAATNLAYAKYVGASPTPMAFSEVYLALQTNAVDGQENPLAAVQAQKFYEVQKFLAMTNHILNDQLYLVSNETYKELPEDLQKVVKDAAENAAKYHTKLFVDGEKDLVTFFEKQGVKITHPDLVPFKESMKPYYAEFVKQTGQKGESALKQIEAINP

CC(=O)N[C@H]1[C@H]([C@H](O)[C@H](O)CO)OC(O)(C(=O)O)C[C@@H]1O (stereo partly shown) [NeuAc]
Kd [1]: 157 µM
Kd [2]: 0.51 µM
Kd [3]: 600 µM
Kd [4]: 0.013 µM
